Data published in article PMC10650955, “α-Aminophosphonate inhibitors of metallo-β-lactamases NDM-1 and VIM-2” (RSC Medicinal Chemistry, 2023).
Structures can show the parent of a compound that is named as a salt.

Tests used:
NDM-1 = biological target: T1, NDM-1 (Klebsiella pneumoniae, UniProt C7C422); experiment: Dose rate inhibition studies for IC50 determination, NDM-1 enzymatic assay; format: biochemical; conditions: Enzyme IC50 NDM-1, 10 nM NDM-1, 100 μM ZnCl2, imipenem substrate, inhibitor 0-800 μM, 3 parallel measurements; N.I. = no enzyme inhibitory activity observed
T1 construct: made in house
Protocol: (§1) The […] synthesized compounds 5a–l were tested for their inhibitory activities against NDM-1, VIM-2 (Table 1), and GIM-1 in an in vitro enzymatic assay (ESI ^†).[41] The inhibitory activity was measured using enzyme concentrations of 0.1 nM VIM-2, 10 nM NDM-1 or 1 nM GIM-1, with an excess Zn(II) (100 μM, see Experimental methods), with inhibitor compounds with concentrations from 0 to 800 μM. Each data point was measured in triplicates. […] This is in line with previous reports.[42,43]
(§2) A 100 μl solution with buffer (50 mM HEPES (pH 7.2), 100 μM ZnCl2, 2.5% DMSO), purified enzyme (0.1 nM VIM-2, 10 nM NDM-1 or 1 nM GIM-1) and 800–0 μM inhibitor was incubated in a 96 well plate at 25 °C for 5 min. In addition, the enzyme buffer contained 400 μg ml^−1 bovine serum albumin (BSA) to prevent protein unfolding and loss of activity due to low concentrations.[67,68] 100 μM of the reporter substrate nitrocefin (VIM-2, GIM-1) or imipenem (NDM-1) was added to the enzyme–inhibitor solution and the increase in absorbance at 482 nm (nitrocefin) or 300 nm (imipenem) was recorded on a Spectramax M4 spectrophotometer (Molecular Devices). Each data point was performed in triplicates and the initial velocity for each inhibitor concentration was analyzed by a log [inhibitor] vs. response curve fitting to calculate IC50 in GraphPad Prism 9.2 software.

VIM-2 = biological target: T2, VIM-2 (Escherichia coli, UniProt Q5U7L7); experiment: Dose rate inhibition studies for IC50 determination, VIM-2 enzymatic assay; format: biochemical; conditions: inhibitor 0-800 μM, 3 parallel measurements, N.I. = no enzyme inhibitory activity observed
T2 construct: made in house
Protocol: as §1, §2

15N-labelled NDM-1 = biological target: T3, 15N-labelled NDM-1 (Klebsiella pneumoniae, UniProt C7C422); experiment: 1H,15N HSQC NMR chemical shift perturbation titration, NDM-1; format: binding
T3 construct: made in house
Protocol: (§3) Solution NMR spectroscopy is a powerful tool to assess protein–ligand interactions under close to physiological conditions.[47] We, therefore, performed NMR chemical shift perturbation (CSP, for details, see section S8, ESI ^†) experiments to identify the amino acid residues of NDM-1 and VIM-2 that are involved in inhibitor binding, making use of the previously published protein assignments.[48,49] Titrations were conducted using ^15N-labelled proteins with 0, 0.5, 1, 2, 4, 8, and 16 equiv. of 5 inhibitors for NDM-1 and of 7 inhibitors for VIM-2.
(§4) For the titrations, ^15N-labelled NDM-1 and ^15N-labelled VIM-2 (250 μM), and titrated ligands (0.5 equiv. in 1 μL) were prepared in the same buffer as the protein (20 mM KPO4, 0.1 mM ZnCl2, pH 7.0 with 10% D2O and 2.5% DMSO-d6). ^1H,^15N HSQC spectra were acquired with 128 × 1024 complex points (F1 × F2) and spectral width of 9090 × 2740 Hz on ^15N-labeled NDM-1/VIM-2 and with every titration step up to 1 : 16 ratio between protein : ligand (0, 0.5, 1, 2, 4, 8, and 16 equiv. of ligand). All experiments were recorded on a Bruker 600 MHz spectrometer at 310 K equipped with a 5 mm TCI cryogenic probe. The NMR data were processed on the MestReNova software with the Mnova Binding plugin. The weighted average chemical shift perturbations (CSP) for the backbone amides were calculated from the observed chemical shift differences in the proton and nitrogen dimensions using the equation (chemical shift scaling factors: FH = 1, FN = 0.156) CSP = Δδ1H,15N = [drawing 13] .
(§5) 7. Chemical shift perturbation histograms
(§6) Chemical shift perturbation was calculated according equation (1) 2
(§7) CSP = Δδ(1H,15N) = √(Δδ1H2 + (1⁄R × Δδ15N2) Rscale = 6.5 (1)
(§8) Where Δδ1H is the chemical shift change for proton dimension, Δδ15N is the chemical shift change for nitrogen dimension, Rscale is a
(§9) The chemical shift perturbations (CSP) were classified as significant (SSP) when the observed Δδ(1H,15N) was greater than the population
(§10) mean plus the standard deviation (µ+1σ) – solid line; (µ+2σ) – dashed line, and (µ+3σ) – dashed line.
(§11) Further on, Kd was calculated according: 3
(§12) ([P]+[L]+Kd)− √([P]+[L]+Kd)2−4[P][L]
(§13) ΔδmaxΔδobs = Δδmax 2[P] (2)
(§14) Where Kd is the dissociation constant, [P] and [L] are protein and ligand concentrations, respectively. Δδmax were estimated in
(§15) MestReNova by extrapolation of the obser ved chemical shift differences Δδobs.

15N-labelled VIM-2 = biological target: T4, 15N-labelled VIM-2 (Escherichia coli, UniProt Q5U7L7); experiment: 1H,15N HSQC NMR chemical shift perturbation titration, VIM-2; format: binding; conditions: VIM-2 Kd, 0-16 equiv. ligand, pH 7.0, 310 K
T4 construct: made in house
Protocol: as §3, §4, §5, §6, §7, §8, §9, §10, §11, §12, §13, §14, §15

[1] = Estimated binding constant (Kd), residue 119T, Table S5, per-residue fit, NDM-1 119T
[2] = Estimated binding constant (Kd), residue 124D, Table S5, per-residue fit, NDM-1 124D
[3] = Estimated binding constant (Kd), residue 127G, Table S5, per-residue fit, NDM-1 127G
[4] = Estimated binding constant (Kd), residue 159H, Table S5, per-residue fit, NDM-1 159H
[5] = Estimated binding constant (Kd), residue 160S, Table S5, per-residue fit, NDM-1 160S
[6] = Estimated binding constant (Kd), residue 194I, Table S5, per-residue fit, NDM-1 194I
[7] = Estimated binding constant (Kd), residue 197G, Table S5, per-residue fit, NDM-1 197G
[8] = Estimated binding constant (Kd), residue 205F, Table S5, per-residue fit, NDM-1 205F
[9] = Estimated binding constant (Kd), residue 211K, Table S5, per-residue fit, NDM-1 211K
[10] = Estimated binding constant (Kd), residue 214K, Table S5, per-residue fit, NDM-1 214K
[11] = Estimated binding constant (Kd), residue 217S, Table S5, per-residue fit, NDM-1 217S
[12] = Estimated binding constant (Kd), residue 228H, Table S5, per-residue fit, NDM-1 228H
[13] = Estimated binding constant (Kd), residue 229Y, Table S5, per-residue fit, NDM-1 229Y
[14] = Estimated binding constant (Kd), residue 230A, Table S5, per-residue fit, NDM-1 230A
[15] = Estimated binding constant (Kd), residue 248M, Table S5, per-residue fit, NDM-1 248M
[16] = Estimated binding constant (Kd), residue 251S, Table S5, per-residue fit, NDM-1 251S
[17] = Estimated binding constant (Kd), residue 254D, Table S5, per-residue fit, NDM-1 254D
[18] = Estimated binding constant (Kd), residue 255S, Table S5, per-residue fit, NDM-1 255S
[19] = NDM-1 Kd, NMR chemical shift perturbation, 0-16 equiv. ligand, pH 7.0, 310 K

T3 sequence (C7C422 29-270 limits assumed): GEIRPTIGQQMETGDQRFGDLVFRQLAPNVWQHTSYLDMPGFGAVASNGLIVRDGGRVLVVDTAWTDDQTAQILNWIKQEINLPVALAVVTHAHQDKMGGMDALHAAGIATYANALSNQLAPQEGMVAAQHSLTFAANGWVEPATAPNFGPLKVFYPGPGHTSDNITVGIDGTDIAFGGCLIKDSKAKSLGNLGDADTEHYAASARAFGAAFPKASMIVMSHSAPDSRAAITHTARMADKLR
T1 sequence (C7C422 29-270 limits assumed): as above

SMILES	IC50 (NDM-1) [µM]	Kd (15N-labelled NDM-1; [1]) [µM]	Kd (15N-labelled NDM-1; [2]) [µM]	Kd (15N-labelled NDM-1; [3]) [µM]	Kd (15N-labelled NDM-1; [4]) [µM]	Kd (15N-labelled NDM-1; [5]) [µM]	Kd (15N-labelled NDM-1; [6]) [µM]	Kd (15N-labelled NDM-1; [7]) [µM]	Kd (15N-labelled NDM-1; [8]) [µM]	Kd (15N-labelled NDM-1; [9]) [µM]	Kd (15N-labelled NDM-1; [10]) [µM]	Kd (15N-labelled NDM-1; [11]) [µM]	Kd (15N-labelled NDM-1; [12]) [µM]	Kd (15N-labelled NDM-1; [13]) [µM]	Kd (15N-labelled NDM-1; [14]) [µM]	Kd (15N-labelled NDM-1; [15]) [µM]	Kd (15N-labelled NDM-1; [16]) [µM]	Kd (15N-labelled NDM-1; [17]) [µM]	Kd (15N-labelled NDM-1; [18]) [µM]	Kd (15N-labelled NDM-1; [19]) [µM]	other results
O=C(Cc1cccs1)NC(C1CCCCN1)P(=O)(O)O (stereo not shown) [Compound 5i-1, (Piperidin-2-yl(2-(thiophen-2-yl)acetamido)methyl)phos-phonic acid hydrochloride]	296 ± 87	930	3530	8940	2470	250	4990	1270	2300	140	570	3060	3080	340	180	780	1820	7530	9910	500 ± 100	Enzyme IC50 VIM-2 (VIM-2; 0.1 nM VIM-2, 100 μM ZnCl2, nitrocefin substrate): N.I.; Kd (15N-labelled NDM-1; Estimated binding constant (Kd), residue 188G, Table S5, per-residue fit, NDM-1 188G): 490 µM; Kd (15N-labelled NDM-1; Estimated binding constant (Kd), residue 191S, Table S5, per-residue fit, NDM-1 191S): 120 µM; Kd (15N-labelled NDM-1; Estimated binding constant (Kd), residue 213S, Table S5, per-residue fit, NDM-1 213S): 390 µM; Kd (15N-labelled NDM-1; Estimated binding constant (Kd), residue 252A, Table S5, per-residue fit, NDM-1 252A): 480 µM; Kd (15N-labelled VIM-2): 1500 ± 200 µM
O=C(Cc1cccs1)NC(C1CCCCN1)P(=O)(O)O (stereo not shown) [Compound 5i-2, (Piperidin-2-yl(2-(thiophen-2-yl)acetamido)methyl)phos-phonic acid hydrochloride]	271 ± 34	26400	14100	1760	8300	17600	2490	15200	6840	17100	780	16400	10100	2300	2710	2580	3380	5010	1660	1400 ± 100	IC50 (VIM-2; Enzyme IC50 VIM-2, 0.1 nM VIM-2, 100 μM ZnCl2, nitrocefin substrate): 328 ± 116 µM; Kd (15N-labelled NDM-1; Estimated binding constant (Kd), residue 070F, Table S5, per-residue fit, NDM-1 070F): 4900 µM; Kd (15N-labelled NDM-1; Estimated binding constant (Kd), residue 108E, Table S5, per-residue fit, NDM-1 108E): 2030 µM; Kd (15N-labelled NDM-1; Estimated binding constant (Kd), residue 152E, Table S5, per-residue fit, NDM-1 152E): 1180 µM; Kd (15N-labelled NDM-1; Estimated binding constant (Kd), residue 206G, Table S5, per-residue fit, NDM-1 206G): 6810 µM; Kd (15N-labelled NDM-1; Estimated binding constant (Kd), residue 232S, Table S5, per-residue fit, NDM-1 232S): 5570 µM; Kd (15N-labelled NDM-1; Estimated binding constant (Kd), residue 249S, Table S5, per-residue fit, NDM-1 249S): 8450 µM; Kd (15N-labelled NDM-1; Estimated binding constant (Kd), residue 263A_266A, Table S5, per-residue fit, NDM-1 263A_266A): 690 µM; Kd (15N-labelled VIM-2): 1100 ± 100 µM
